In patent publication US11858945B2, “Alkyne-containing antiviral agents” (Enanta Pharmaceuticals, Inc., priority 2021, dated 2024):

Target: SARS-CoV-2 3CL-protease (Severe acute respiratory syndrome coronavirus 2 (2019-nCoV) (SARS-CoV-2), UniProt P0DTD1)
Assay: SARS-CoV-2 3C-like (3CL) protease fluorescence assay (FRET)
Type: biochemical
Details: recombinant SARS-CoV-2 3CL-protease 10 nM, 30 min preincubation at RT, peptide substrate, run in duplicate; IC50 ranges

Row | Compound | IC50
1 | C#C[C@@H]1C[C@@]2(CN1C(=O)[C@H](CC(C)(C)F)NC(=O)c1cc3cc(S(C)(=O)=O)ccc3[nH]1)C(=O)Nc1ccccc12 [Compound 1, N—((S)-1-((3R,5′S)-5′-ethynyl-2-oxospiro[indoline-3,3′-pyrrolidin]-1′-yl)-4-fluoro-4-methyl-1-oxopentan-2-yl)-5-(methylsulfonyl)-1H-indole-2-carboxamide] | 100 to 1000 nM
2 | C#C[C@@H]1C[C@@]2(CN1C(=O)[C@H](CC(C)(C)F)NC(=O)c1c(Cl)cccc1Cl)C(=O)Nc1ccccc12 [Compound 21, 2,6-dichloro-N—((S)-1-((3R,5′S)-5′-ethynyl-2-oxospiro[indoline-3,3′-pyrrolidin]-1′-yl)-4-fluoro-4-methyl-1-oxopentan-2-yl)benzamide] | > 1000 nM
3 | C#C[C@@H]1C[C@@]2(CN1C(=O)[C@H](CC(C)(C)F)NC(=O)c1cc3cccc(C#N)c3[nH]1)C(=O)Nc1ccccc12 [Compound 15, 7-cyano-N—((S)-1-((3R,5′S)-5′-ethynyl-2-oxospiro[indoline-3,3′-pyrrolidin]-1′-yl)-4-fluoro-4-methyl-1-oxopentan-2-yl)-1H-indole-2-carboxamide] | < 100 nM
4 | C#C[C@@H]1C[C@@]2(CN1C(=O)[C@H](CC(C)(C)F)NC(=O)c1cc3ccc(Cl)cc3[nH]1)C(=O)Nc1ccccc12 [Compound 4, 6-chloro-N—((S)-1-((3R,5′S)-5′-ethynyl-2-oxospiro[indoline-3,3′-pyrrolidin]-1′-yl)-4-fluoro-4-methyl-1-oxopentan-2-yl)-1H-indole-2-carboxamide] | < 100 nM
5 | C#C[C@@H]1C[C@@]2(CN1C(=O)[C@H](CC(C)(C)F)NC(=O)c1cccc(OC(F)(F)F)c1)C(=O)Nc1ccccc12 [Compound 20, N—((S)-1-((3R,5′S)-5′-ethynyl-2-oxospiro[indoline-3,3′-pyrrolidin]-1′-yl)-4-fluoro-4-methyl-1-oxopentan-2-yl)-3-(trifluoromethoxy)benzamide] | 100 to 1000 nM
6 | C#C[C@@H]1C[C@@]2(CN1C(=O)[C@H](CC(C)(C)F)NC(=O)c1cc3c(Cl)cc(Cl)cc3[nH]1)C(=O)Nc1ccccc12 [Compound 6, 4,6-dichloro-N—((S)-1-((3R,5′S)-5′-ethynyl-2-oxospiro[indoline-3,3′-pyrrolidin]-1′-yl)-4-fluoro-4-methyl-1-oxopentan-2-yl)-1H-indole-2-carboxamide] | 100 to 1000 nM
7 | C#C[C@@H]1C[C@@]2(CN1C(=O)[C@H](CC(C)(C)F)NC(=O)c1cc3cc(F)c(F)c(F)c3[nH]1)C(=O)Nc1ccccc12 [Compound 12, N—((S)-1-((3R,5′S)-5′-ethynyl-2-oxospiro[indoline-3,3′-pyrrolidin]-1′-yl)-4-fluoro-4-methyl-1-oxopentan-2-yl)-5,6,7-trifluoro-1H-indole-2-carboxamide] | < 100 nM
8 | C#C[C@@H]1C[C@@]2(CN1C(=O)[C@H](CC(C)(C)F)NC(=O)c1cc3ccc(F)cc3[nH]1)C(=O)Nc1ccccc12 [Compound 9, N—((S)-1-((3R,5′S)-5′-ethynyl-2-oxospiro[indoline-3,3′-pyrrolidin]-1′-yl)-4-fluoro-4-methyl-1-oxopentan-2-yl)-6-fluoro-1H-indole-2-carboxamide] | < 100 nM
9 | C#C[C@@H]1C[C@@]2(CN1C(=O)[C@H](CC(C)(C)F)NC(=O)c1cc3cc(F)ccc3o1)C(=O)Nc1ccccc12 [Compound 18, N—((S)-1-((3R,5′S)-5′-ethynyl-2-oxospiro[indoline-3,3′-pyrrolidin]-1′-yl)-4-fluoro-4-methyl-1-oxopentan-2-yl)-5-fluorobenzofuran-2-carboxamide] | > 1000 nM
10 | C#C[C@@H]1C[C@@]2(CN1C(=O)[C@H](CC(C)(C)F)NC(=O)c1cc3c(F)ccc(F)c3[nH]1)C(=O)Nc1ccccc12 [Compound 11, N—((S)-1-((3R,5′S)-5′-ethynyl-2-oxospiro[indoline-3,3′-pyrrolidin]-1′-yl)-4-fluoro-4-methyl-1-oxopentan-2-yl)-4,7-difluoro-1H-indole-2-carboxamide] | < 100 nM
11 | C#C[C@@H]1C[C@@]2(CN1C(=O)[C@H](CC(C)(C)F)NC(=O)c1cc3cccc(F)c3o1)C(=O)Nc1ccccc12 [Compound 17, N—((S)-1-((3R,5′S)-5′-ethynyl-2-oxospiro[indoline-3,3′-pyrrolidin]-1′-yl)-4-fluoro-4-methyl-1-oxopentan-2-yl)-7-fluorobenzofuran-2-carboxamide] | > 1000 nM
12 | C#C[C@@H]1C[C@@]2(CN1C(=O)[C@H](CC(C)(C)F)NC(=O)c1cc3cccc(F)c3[nH]1)C(=O)Nc1ccccc12 [Compound 8, N—((S)-1-((3R,5′S)-5′-ethynyl-2-oxospiro[indoline-3,3′-pyrrolidin]-1′-yl)-4-fluoro-4-methyl-1-oxopentan-2-yl)-7-fluoro-1H-indole-2-carboxamide] | < 100 nM
13 | C#C[C@@H]1C[C@@]2(CN1C(=O)[C@H](CC(C)(C)F)NC(=O)c1cc3cccc(Cl)c3[nH]1)C(=O)Nc1ccccc12 [Compound 5, 7-chloro-N—((S)-1-((3R,5′S)-5′-ethynyl-2-oxospiro[indoline-3,3′-pyrrolidin]-1′-yl)-4-fluoro-4-methyl-1-oxopentan-2-yl)-1H-indole-2-carboxamide] | < 100 nM
14 | C#C[C@@H]1C[C@@]2(CN1C(=O)[C@H](CC(C)(C)F)NC(=O)c1cc3c(Cl)cccc3[nH]1)C(=O)Nc1ccccc12 [Compound 2, 4-chloro-N—((S)-1-((3R,5′S)-5′-ethynyl-2-oxospiro[indoline-3,3′-pyrrolidin]-1′-yl)-4-fluoro-4-methyl-1-oxopentan-2-yl)-1H-indole-2-carboxamide] | 100 to 1000 nM
15 | C#C[C@@H]1C[C@@]2(CN1C(=O)[C@H](CC(C)(C)F)NC(=O)c1cc3cccc(C(F)(F)F)c3[nH]1)C(=O)Nc1ccccc12 [Compound 13, N—((S)-1-((3R,5′S)-5′-ethynyl-2-oxospiro[indoline-3,3′-pyrrolidin]-1′-yl)-4-fluoro-4-methyl-1-oxopentan-2-yl)-7-(trifluoromethyl)-1H-indole-2-carboxamide] | < 100 nM
16 | C#C[C@@H]1C[C@@]2(CN1C(=O)[C@H](CC(C)(C)F)NC(=O)c1cc3cccnc3[nH]1)C(=O)Nc1ccccc12 [Compound 16, N—((S)-1-((3R,5′S)-5′-ethynyl-2-oxospiro[indoline-3,3′-pyrrolidin]-1′-yl)-4-fluoro-4-methyl-1-oxopentan-2-yl)-1H-pyrrolo[2,3-b]pyridine-2-carboxamide] | 100 to 1000 nM
17 | C#C[C@@H]1C[C@@]2(CN1C(=O)[C@H](CC(C)(C)F)NC(=O)c1cc3c(F)cc(F)cc3[nH]1)C(=O)Nc1ccccc12 [Compound 10, N—((S)-1-((3R,5′S)-5′-ethynyl-2-oxospiro[indoline-3,3′-pyrrolidin]-1′-yl)-4-fluoro-4-methyl-1-oxopentan-2-yl)-4,6-difluoro-1H-indole-2-carboxamide] | 100 to 1000 nM
18 | C#C[C@@H]1C[C@@]2(CN1C(=O)[C@H](CC(C)(C)F)NC(=O)c1cc3cc(C(F)(F)F)ccc3[nH]1)C(=O)Nc1ccccc12 [Compound 14, N—((S)-1-((3R,5′S)-5′-ethynyl-2-oxospiro[indoline-3,3′-pyrrolidin]-1′-yl)-4-fluoro-4-methyl-1-oxopentan-2-yl)-5-(trifluoromethyl)-1H-indole-2-carboxamide] | 100 to 1000 nM
19 | C#C[C@@H]1C[C@@]2(CN1C(=O)[C@H](CC(C)(C)F)NC(=O)c1cc3ccc(Cl)c(Cl)c3[nH]1)C(=O)Nc1ccccc12 [Compound 7, 6,7-dichloro-N—((S)-1-((3R,5′S)-5′-ethynyl-2-oxospiro[indoline-3,3′-pyrrolidin]-1′-yl)-4-fluoro-4-methyl-1-oxopentan-2-yl)-1H-indole-2-carboxamide] | < 100 nM
20 | C#C[C@@H]1C[C@@]2(CN1C(=O)[C@H](CC(C)(C)F)NC(=O)c1cc3cc(Cl)ccc3[nH]1)C(=O)Nc1ccccc12 [Compound 3, 5-chloro-N—((S)-1-((3R,5′S)-5′-ethynyl-2-oxospiro[indoline-3,3′-pyrrolidin]-1′-yl)-4-fluoro-4-methyl-1-oxopentan-2-yl)-1H-indole-2-carboxamide] | 100 to 1000 nM
21 | C#C[C@@H]1C[C@@]2(CN1C(=O)[C@H](CC(C)(C)F)NC(=O)c1cc(F)c3ncccc3c1)C(=O)Nc1ccccc12 [Compound 19, N—((S)-1-((3R,5′S)-5′-ethynyl-2-oxospiro[indoline-3,3′-pyrrolidin]-1′-yl)-4-fluoro-4-methyl-1-oxopentan-2-yl)-8-fluoroquinoline-6-carboxamide] | > 1000 nM
